Patent US9528092B2, “Methods of efficiently establishing induced pluripotent stem cells under hypoxic conditions” (Kyoto University, priority 2008, dated 2016)

System: four-factor transduced MEFs
Assay: Flow cytometric analysis of Nanog-GFP-positive cells on day 9 posttransduction
Assay type: cell-based, mouse
Details: day 5 to day 9 posttransduction, flow cytometry on day 9, four factors alone 0.01%
Protocol: Mice having a Nanog reporter were used as an experimental system. The Nanog reporter used was prepared by inserting the enhanced green fluorescent protein (EGFP) and puromycin resistant genes into the Nanog locus of a BAC (bacterial artificial chromosome) purchased from BACPAC Resources [Okita K. et al., Nature 448, 313-317 (2007)]. The mouse Nanog gene is expressed specifically in pluripotent cells such as ES cells and early embryos. The mouse iPS cells that have become positive for this reporter are known to be nearly equivalent to ES cells in terms of differentiation potential. Mouse embryonic fibroblasts (MEFs) and tail-tip fibroblasts (TTFs) obtained from a Nanog reporter mouse having this Nanog reporter [Okita K. et al., Nature 448, 313-317 (2007)] were transfected by means of retroviruses to establish iPS cells, and colonies expressing EGFP from the Nanog reporter were counted to evaluate the efficiency of establishment of iPS cells.
To investigate whether GFP-positive cells were detected earlier or not, the four-factor transduced MEFs were cultivated under 20% oxygen or under 5% oxygen with or without 2 mM valproic acid (VPA) from day 5 to day 9 posttransduction, and were subjected to flow cytometric analysis on day 9. Retroviral expression of four factors induced 0.01% of the cells to become GFP-positive on day 9 posttransduction. […]

CCCC(CCC)C(=O)O [VPA, valproic acid]
percentage of GFP-positive cells (2 mM VPA, 20% oxygen): 0.48% | percentage of GFP-positive cells (co-treatment with hypoxia (5% oxygen) and 2 mM VPA): 2.28%
